Data on 11 compounds can be found in US10508111B2, “6-[5-amino-6-(2-ethoxyethoxy)-imidazo[4,5-B]pyridin-3-yl]-nicotinonitrile derivatives and their use as IRAK inhibitors” (GALAPAGOS NV, priority 2015, dated 2019).

Type in all cases: biochemical
One assay has as its target T1, GSK3b (Homo sapiens, UniProt P49841).
T1 construct: purchased Carna Biosciences 04-141
In words: Kinase selectivity profiling (focused panel), radioactive filter plate assay: GSK3b. The note with it: Phospho glycogen synthase peptide2, 1.5 μM ATP, 90 min. The method, then:
(§1) The purpose of this assay is to determine the activity and selectivity of a compound of the invention on a selected range of human kinases which may result in undesirable side-effects when inhibited (Dy & Adjei 2013; Force & Kolaja 2011).
(§2) The IC50 value for off-target kinases is determined in radioactive filter plate assays. The principle of the assays consists in the measurement of incorporated ^33P into a peptide substrate upon phosphorylation by the kinase enzyme using [γ-^33P]ATP and ATP. Unincorporated ^33P is removed by loading the samples on a filter plate (using a harvester, PerkinElmer) and 6 subsequent washing steps. Incorporated ^33P in the peptide substrate is measured by a scintillation counter (Topcount, PerkinElmer) after addition of MicroScint™-20 (PerkinElmer, 6013621) to the filter plates.
(§3) 5 μL of a water dilution series of test compound (starting from 20 μM or 6.6 μM highest concentration), from a 100% DMSO stock solution, 1/5 dilution, is added to the wells (final DMSO concentration of 1% in reaction assay). Enzyme and peptide substrate are used at optimized concentrations (cf. Table VI). The enzyme and substrate are diluted in assay buffer to a total volume of 11 μL. The reaction is started by addition of 9 μL of ATP+[γ-^33P]ATP, diluted in the same buffer as enzyme and substrate. The mixture is incubated at 30° C. The reaction is terminated by adding 25 μL of 150 mM phosphoric acid. Samples are transferred to filter plates and incorporated radioactivity is measured using a scintillation counter.
(§4) The incubation time, assay buffer composition, and concentrations of ATP, enzyme and substrate are reported in Table VI for example kinase off-target assays.
(§5) 10 μM staurosporine (1% DMSO) is used as positive control (100% inhibition); vehicle (water+1% DMSO) as negative control (0% inhibition).

For another assay, the target named is T2, CDK2 (Homo sapiens, UniProt P24941).
T2 construct: purchased Carna Biosciences 04-103
Nature of the assay: Kinase selectivity profiling (focused panel), radioactive filter plate assay: CDK2. The note with it: Histone H1-derived peptide, 0.1 μM ATP, 60 min. Here is the method:
as §1, §2, §3, §4, §5

The target of another assay is T3, human IRAK-4 (Homo sapiens, UniProt Q9NWZ3).
T3 construct: purchased Carna Biosciences 09-145
T3 sequence (Q9NWZ3 1-460): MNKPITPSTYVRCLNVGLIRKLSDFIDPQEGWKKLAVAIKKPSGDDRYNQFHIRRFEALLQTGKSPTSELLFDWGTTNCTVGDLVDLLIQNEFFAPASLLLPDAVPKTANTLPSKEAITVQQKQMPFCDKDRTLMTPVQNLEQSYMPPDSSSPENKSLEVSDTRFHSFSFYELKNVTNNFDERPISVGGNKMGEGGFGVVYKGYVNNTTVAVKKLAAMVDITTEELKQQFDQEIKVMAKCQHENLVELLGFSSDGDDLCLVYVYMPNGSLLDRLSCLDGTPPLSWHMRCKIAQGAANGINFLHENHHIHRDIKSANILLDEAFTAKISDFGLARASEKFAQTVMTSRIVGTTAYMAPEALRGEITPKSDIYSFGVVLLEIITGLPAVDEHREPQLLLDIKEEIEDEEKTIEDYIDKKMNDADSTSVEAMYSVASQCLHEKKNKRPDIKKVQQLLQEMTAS
Nature of the assay: IC50 determination for human IRAK-4, radioactive filter plate assay. The note with it: RIP140 substrate, 1 μM ATP + [γ-33P]ATP, 30° C., 45 min; read-out: hIRAK-4 IC50. The method, then:
The IC50 value for IRAK-4 is determined in a radioactive filter plate assay. The principle of the assay consists in the measurement of incorporated ^33P into the RIP140 substrate upon phosphorylation by the enzyme IRAK-4 using [γ-^33P]ATP and ATP. Unincorporated ^33P is removed by loading the samples on a filter plate (using a harvester, PerkinElmer) and 6 subsequent washing steps. Incorporated ^33P in RIP140 is measured by a scintillation counter (Topcount, PerkinElmer) after addition of MicroScint™-20 (PerkinElmer, 6013621) to the filter plates.
5 μL of a water dilution series of test compound (starting from 20 μM or 6.6 μM highest concentration), from a 100% DMSO stock solution, 1/5 dilution, is added to the wells (final DMSO concentration of 1% in reaction assay). IRAK-4 (Carna Biosciences, 09-145) and RIP140 (SEQ ID1, cf. Table VII) are used at a final concentration of 10 ng/mL and 4 μM, respectively. The enzyme and substrate are diluted in 25 mM Tris pH 7.5, 0.025% Triton X-100, 5 mM MnCl2, and 2 mM DTT to a total volume of 11 μL. The reaction is started by addition of 9 μL of 1 μM ATP (Sigma, A6419-5G)+0.25 μCi [γ-^33P]ATP (PerkinElmer, NEG602K001MC), diluted in the same buffer as enzyme and substrate. The mixture is incubated at 30° C. for 45 min. The reaction is terminated by adding 25 μL of 150 mM phosphoric acid (VWR, 1.00573.1000). Samples are transferred to filter plates and incorporated radioactivity is measured using a scintillation counter.
as §5

A further assay concerns the target T4, CDK9 (Homo sapiens, UniProt P50750).
T4 construct: purchased Millipore 14-685
In words: Kinase selectivity profiling (focused panel), radioactive filter plate assay: CDK9. Conditions: PDKtide, 0.25 μM ATP, 60 min. The method, then: as §1, §2, §3, §4, §5

For another assay, the target named is T5, c-SRC (Homo sapiens, UniProt P12931).
T5 construct: purchased Carna Biosciences 08-173
T5 sequence (P12931 whole entry): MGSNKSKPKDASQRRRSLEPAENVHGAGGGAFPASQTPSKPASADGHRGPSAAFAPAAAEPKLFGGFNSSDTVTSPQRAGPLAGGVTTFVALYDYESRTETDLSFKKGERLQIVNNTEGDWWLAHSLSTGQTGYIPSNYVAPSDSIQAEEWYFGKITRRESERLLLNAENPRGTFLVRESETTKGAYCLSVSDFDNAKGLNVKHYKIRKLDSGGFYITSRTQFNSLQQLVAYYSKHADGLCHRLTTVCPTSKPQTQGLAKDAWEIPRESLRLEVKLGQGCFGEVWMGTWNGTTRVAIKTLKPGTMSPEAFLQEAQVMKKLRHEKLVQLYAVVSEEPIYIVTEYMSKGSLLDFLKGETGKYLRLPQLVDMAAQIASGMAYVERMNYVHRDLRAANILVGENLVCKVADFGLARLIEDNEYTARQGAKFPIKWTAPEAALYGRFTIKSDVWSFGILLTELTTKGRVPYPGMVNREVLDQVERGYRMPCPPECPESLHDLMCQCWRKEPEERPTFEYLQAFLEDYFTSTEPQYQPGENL
Nature of the assay: Kinase selectivity profiling (focused panel), radioactive filter plate assay: c-SRC. The note with it: PolyGT substrate, 0.25 μM ATP, 60 min. Here is the method:
as §1, §2, §3, §4, §5

The target in a further assay is T6, ABL (Homo sapiens, UniProt P00519).
T6 construct: purchased Life Technologies P3049
T6 sequence (P00519 whole entry): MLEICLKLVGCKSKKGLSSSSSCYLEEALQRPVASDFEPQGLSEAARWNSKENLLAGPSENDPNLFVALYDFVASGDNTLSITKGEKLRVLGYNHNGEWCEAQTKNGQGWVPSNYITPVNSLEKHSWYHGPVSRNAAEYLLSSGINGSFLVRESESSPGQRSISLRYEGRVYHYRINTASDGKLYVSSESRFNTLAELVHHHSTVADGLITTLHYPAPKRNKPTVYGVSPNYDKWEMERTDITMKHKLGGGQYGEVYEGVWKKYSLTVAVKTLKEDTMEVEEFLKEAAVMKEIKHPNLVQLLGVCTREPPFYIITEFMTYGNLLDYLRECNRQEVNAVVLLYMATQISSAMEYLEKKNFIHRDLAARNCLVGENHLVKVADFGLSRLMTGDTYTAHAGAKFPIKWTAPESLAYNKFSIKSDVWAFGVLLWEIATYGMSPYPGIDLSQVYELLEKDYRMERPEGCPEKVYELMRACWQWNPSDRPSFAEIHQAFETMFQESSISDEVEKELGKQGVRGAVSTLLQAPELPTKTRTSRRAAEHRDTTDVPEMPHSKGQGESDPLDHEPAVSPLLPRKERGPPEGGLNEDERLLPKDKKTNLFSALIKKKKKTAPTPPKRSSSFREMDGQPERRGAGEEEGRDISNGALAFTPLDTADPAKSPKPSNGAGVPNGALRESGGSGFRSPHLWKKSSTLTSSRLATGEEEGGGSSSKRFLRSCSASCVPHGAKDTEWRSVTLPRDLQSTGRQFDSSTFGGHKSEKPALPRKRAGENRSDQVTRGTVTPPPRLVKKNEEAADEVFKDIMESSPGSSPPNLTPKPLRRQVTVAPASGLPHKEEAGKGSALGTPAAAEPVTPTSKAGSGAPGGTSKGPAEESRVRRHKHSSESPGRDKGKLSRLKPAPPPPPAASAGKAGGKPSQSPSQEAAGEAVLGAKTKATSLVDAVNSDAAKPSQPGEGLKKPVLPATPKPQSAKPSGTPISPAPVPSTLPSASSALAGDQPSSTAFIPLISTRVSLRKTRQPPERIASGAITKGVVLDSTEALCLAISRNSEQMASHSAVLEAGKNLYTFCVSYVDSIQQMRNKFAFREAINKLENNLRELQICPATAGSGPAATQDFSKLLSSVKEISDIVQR
In words: Kinase selectivity profiling (focused panel), radioactive filter plate assay: ABL. Conditions: PolyGT substrate, 0.5 μM ATP, 60 min. Here is the method:
as §1, §2, §3, §4, §5

Each structure is given as a SMILES string.

T4 sequence (P50750 whole entry): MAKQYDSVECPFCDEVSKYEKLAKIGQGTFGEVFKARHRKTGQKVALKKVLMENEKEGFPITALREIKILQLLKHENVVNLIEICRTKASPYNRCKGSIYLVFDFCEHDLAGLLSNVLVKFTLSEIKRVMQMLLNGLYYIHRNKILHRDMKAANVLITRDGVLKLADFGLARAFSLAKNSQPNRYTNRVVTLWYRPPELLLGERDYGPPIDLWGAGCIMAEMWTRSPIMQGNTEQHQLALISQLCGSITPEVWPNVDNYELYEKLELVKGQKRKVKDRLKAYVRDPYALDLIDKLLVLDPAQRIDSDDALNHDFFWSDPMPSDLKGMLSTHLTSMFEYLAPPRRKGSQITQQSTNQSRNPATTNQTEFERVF
T4 sequence (O60563 whole entry partner): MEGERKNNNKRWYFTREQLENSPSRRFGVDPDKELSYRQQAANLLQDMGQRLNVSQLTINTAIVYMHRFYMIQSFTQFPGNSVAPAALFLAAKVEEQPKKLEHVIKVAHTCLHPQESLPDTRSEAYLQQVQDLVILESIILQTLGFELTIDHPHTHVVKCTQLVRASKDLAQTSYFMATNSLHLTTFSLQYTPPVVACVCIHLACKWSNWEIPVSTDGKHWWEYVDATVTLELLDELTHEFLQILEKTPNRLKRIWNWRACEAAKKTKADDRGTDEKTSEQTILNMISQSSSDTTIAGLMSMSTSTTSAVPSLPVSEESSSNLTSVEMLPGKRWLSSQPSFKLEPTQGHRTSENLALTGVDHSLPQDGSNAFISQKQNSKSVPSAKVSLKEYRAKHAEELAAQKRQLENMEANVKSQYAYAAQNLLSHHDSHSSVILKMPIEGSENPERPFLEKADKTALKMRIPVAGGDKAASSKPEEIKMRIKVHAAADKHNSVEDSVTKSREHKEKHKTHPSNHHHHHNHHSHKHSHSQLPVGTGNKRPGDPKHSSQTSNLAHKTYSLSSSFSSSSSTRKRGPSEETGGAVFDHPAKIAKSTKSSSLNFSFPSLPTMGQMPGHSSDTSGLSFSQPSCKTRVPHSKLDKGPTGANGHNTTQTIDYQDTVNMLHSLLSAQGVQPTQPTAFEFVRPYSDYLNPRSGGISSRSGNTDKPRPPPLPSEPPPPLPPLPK
T1 sequence (P49841 whole entry): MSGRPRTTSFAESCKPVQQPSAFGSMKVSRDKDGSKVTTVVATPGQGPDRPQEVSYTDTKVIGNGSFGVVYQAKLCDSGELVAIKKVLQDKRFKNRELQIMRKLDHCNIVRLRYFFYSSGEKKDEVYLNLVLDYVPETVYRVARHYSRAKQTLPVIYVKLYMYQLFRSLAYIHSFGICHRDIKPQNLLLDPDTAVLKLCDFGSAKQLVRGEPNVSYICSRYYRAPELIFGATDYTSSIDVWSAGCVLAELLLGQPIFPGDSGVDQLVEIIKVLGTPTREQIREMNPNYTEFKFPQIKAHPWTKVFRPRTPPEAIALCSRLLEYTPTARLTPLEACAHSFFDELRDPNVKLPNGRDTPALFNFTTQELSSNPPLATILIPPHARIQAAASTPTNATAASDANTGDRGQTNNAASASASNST

`N#Cc1ccc(-n2cnc3cc(OCCOCCO)c(NC4CCS(=O)(=O)CC4)nc32)nc1` [Compound 2, 6-{5-(1,1-dioxo-tetrahydro-2H-thiopyran-4-ylamino)-6-[2-(2-hydroxy-ethoxy)-ethoxy]-imidazo[4,5-b]pyridin-3-yl}-nicotinonitrile]: the IC50 (commonly the concentration needed to halve the response being measured) was more than 1330 nM at GSK3b; more than 1330 nM at CDK2; 25.4 nM at human IRAK-4; 712 nM at CDK9; more than 1330 nM on c-SRC.
`CN(c1nc2c(cc1OCCOCCO)ncn2-c1ccc(C#N)cn1)[C@H]1CC[C@@](C)(O)CC1` [Compound 3, 6-{6-[2-(2-hydroxy-ethoxy)-ethoxy]-5-[((cis-1,4)-4-hydroxy-4-methyl-cyclohexyl)-methyl-amino]-imidazo[4,5-b]pyridin-3-yl}-nicotinonitrile]: the IC50 on human IRAK-4 came to 21.7 nM.
On the same count and under the same terms, the value for `N#Cc1ccc(-n2cnc3cc(OCCOCCO)c(NC4CCC(F)(F)CC4)nc32)nc1` [Compound 7, 6-{5-(4,4-difluoro-cyclohexylamino)-6-[2-(2-hydroxy-ethoxy)-ethoxy]-imidazo[4,5-b]pyridin-3-yl}-nicotinonitrile] was 14.3 nM.
On to `N#Cc1ccc(-n2cnc3cc(OCCOCCO)c(NC4CCCC(O)C4)nc32)nc1` (centres unmarked) [Compound 6, 6-{5-(3-hydroxy-cyclohexylamino)-6-[2-(2-hydroxy-ethoxy)-ethoxy]-imidazo[4,5-b]pyridin-3-yl}-nicotinonitrile], for which the IC50 on GSK3b was more than 4000 nM; at CDK2, 2670 nM; on ABL, 656 nM; at human IRAK-4, 4.85 nM; at CDK9, 1030 nM; on c-SRC, 754 nM.
`CC(C)[C@H](N)C(=O)OCCOCCOc1cc2ncn(-c3ccc(C#N)cn3)c2nc1NC1CCOCC1` [Compound 9, (S)-2-amino-3-methyl-butyric acid 2-{2-[3-(5-cyano-pyridin-2-yl)-5-(tetrahydro-pyran-4-ylamino)-3H-imidazo[4,5-b]pyridin-6-yloxy]-ethoxy}-ethyl ester]: the IC50 was 3250 nM at GSK3b; more than 4000 nM on CDK2; 633 nM on ABL; 13.5 nM at human IRAK-4; 639 nM on CDK9; 286 nM at c-SRC.
`COCCOCCOc1cc2ncn(-c3ccc(C#N)cn3)c2nc1N(C)C1CCOCC1` [Compound 4, 6-{6-[2-(2-methoxy-ethoxy)-ethoxy]-5-[methyl-(tetrahydro-pyran-4-yl)-amino]-imidazo[4,5-b]pyridin-3-yl}-nicotinonitrile]: on human IRAK-4, the IC50 is 523 nM.
Take `N#Cc1ccc(-n2cnc3cc(OCCOCCO)c(N[C@@H]4COCC[C@@H]4O)nc32)nc1` (relative stereo) [Compound 11, 6-[6-[2-(2-hydroxyethoxy)ethoxy]-5-[[(cis-3,4)-4-hydroxytetrahydropyran-3-yl]amino]imidazo[4,5-b]pyridin-3-yl]pyridine-3-carbonitrile]: the half-inhibitory concentration (IC50) at GSK3b was more than 1330 nM; on CDK2 it was more than 1330 nM; at human IRAK-4, 14.3 nM; at CDK9, 834 nM; at c-SRC, more than 1330 nM.
As to `N#Cc1ccc(-n2cnc3cc(OCCOCCOS(=O)(=O)O)c(NC4CCOCC4)nc32)nc1` [Compound 8, sulfuric acid mono-(2-{2-[3-(5-cyano-pyridin-2-yl)-5-(tetrahydro-pyran-4-ylamino)-3H-imidazo[4,5-b]pyridin-6-yloxy]-ethoxy}-ethyl) ester], the IC50 at human IRAK-4 stood at 51.4 nM.
In the case of `COCCOCCOc1cc2ncn(-c3ccc(C#N)cn3)c2nc1N[C@H]1CC[C@@](C)(O)CC1` [Compound 14, 6-[5-[((cis-1,4)-4-hydroxy-4-methylcyclohexyl)amino]-6-[2-(2-methoxyethoxy)ethoxy]imidazo[4,5-b]pyridin-3-yl]pyridine-3-carbonitrile], the IC50 on GSK3b turned out to be 2240 nM; at CDK2 it was 1380 nM; at human IRAK-4, 3.45 nM; at CDK9, 1390 nM; on c-SRC, 319 nM.
For the compound `COCCOCCOc1cc2ncn(-c3ccc(C#N)cn3)c2nc1NC1CCOCC1` [Compound 5, 6-[6-[2-(2-methoxy-ethoxy)-ethoxy]-5-(tetrahydro-pyran-4-ylamino)-imidazo[4,5-b]pyridin-3-yl]-nicotinonitrile], the IC50 on GSK3b was more than 4000 nM; on CDK2 it was more than 4000 nM; at ABL, 2690 nM; at human IRAK-4 it was 13.8 nM; at CDK9 it was 2290 nM; at c-SRC, more than 2940 nM.
Regarding `COCCOCCOc1cc2ncn(-c3ccc(C#N)cn3)c2nc1N(C)[C@H]1CC[C@@](C)(O)CC1` [Compound 13, 6-[5-[((cis-1,4)-4-hydroxy-4-methyl-cyclohexyl)-methyl-amino]-6-[2-(2-methoxyethoxy)ethoxy]imidazo[4,5-b]pyridin-3-yl]pyridine-3-carbonitrile], at human IRAK-4, the IC50 amounted to 39.1 nM.
